Source: PubChem BioAssay AID2060325 (Molecular Pharmacology Branch, DTP, NCI, 2025)
pIC50: −log10 of the molar value.

Test system: SK-OV-3 multi-cell spheroids, viability
Experiment: Anticancer human tumor SK-OV-3 cell line growth inhibition [IpAb];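 on viability, T/C: viability read after seven days of drug exposure; percent of DMSO vehicle control luminescence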
Settings: for pIC50: curve of first compound; for viability, T/C: stronger effect = lower value
Summary of the method: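 Multi-cell spheroids of 60% tumour cells, 25% HUVEC and 15% MSC in ultra-low-attachment U-bottom wells, treated with agents combined with ipatasertib or abemaciclib. Half-log ranges top out near clinical Cmax, or 10 microM when Cmax is unknown.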

[1] = second compound 0.1 µM, first compound 0.0316 µM
[2] = second compound 0.1 µM, first compound 0.1 µM
[3] = second compound 0.1 µM, first compound 0.316 µM
[4] = second compound 0.1 µM, first compound 1 µM
[5] = second compound 0.1 µM, first compound 3.16 µM
[6] = second compound 0.1 µM, first compound 10 µM
[7] = second compound 0.316 µM, first compound 0.0316 µM
[8] = second compound 0.316 µM, first compound 0.1 µM
[9] = second compound 0.316 µM, first compound 0.316 µM
[10] = second compound 0.316 µM, first compound 1 µM
[11] = second compound 0.316 µM, first compound 3.16 µM
[12] = second compound 0.316 µM, first compound 10 µM
[13] = second compound 1 µM, first compound 0.0316 µM
[14] = second compound 1 µM, first compound 0.1 µM
[15] = second compound 1 µM, first compound 0.316 µM
[16] = second compound 1 µM, first compound 1 µM
[17] = second compound 1 µM, first compound 3.16 µM
[18] = second compound 1 µM, first compound 10 µM
[19] = second compound 3.16 µM, first compound 0.0316 µM
[20] = second compound 3.16 µM, first compound 0.1 µM
[21] = second compound 10 µM, first compound 0.0316 µM
[22] = second compound 10 µM, first compound 0.1 µM

In the case of `Cn1ncc(Cl)c1-c1cc(C(=O)NC(CN)Cc2cccc(F)c2)sc1Cl` (stereo not given) + CC(C)NCC(C(=O)N1CCN(c2ncnc3c2C(C)CC3O)CC1)c1ccc(Cl)cc1, the pIC50 (second compound 0.1 µM) was 7.23, the pIC50 (second compound 0.316 µM) was greater than 7.50 and the pIC50 (second compound 1 µM) was greater than 7.50. For the same compound, the pIC50 (second compound 3.16 µM) was greater than 7.50, the pIC50 (second compound 10 µM) was greater than 7.50 and the viability, T/C [1] was 62.6%. It also gave a viability, T/C [2] of 38.1%, a viability, T/C [3] of 25% and a viability, T/C [4] of 16.4%. For the same compound, the viability, T/C [5] was 8.41%, the viability, T/C [6] was 0.21% and the viability, T/C [7] was 36.4%. The viability, T/C [8] was 28.2%, the viability, T/C [9] was 19.7% and the viability, T/C [10] was 13.8%. For the same compound, the viability, T/C [11] was 8.71%, the viability, T/C [12] was 0.38% and the viability, T/C [13] was 20.7%. For the same compound, the viability, T/C [14] was 18.3%, the viability, T/C [15] was 17.6% and the viability, T/C [16] was 13.6%. It also gave a viability, T/C [17] of 8.68%, a viability, T/C [18] of 0.2% and a viability, T/C [19] of 15.7%. For the same compound, the viability, T/C [20] was 15.9%, the viability, T/C (second compound 3.16 µM, first compound 0.316 µM) was 15.9% and the viability, T/C (second compound 3.16 µM, first compound 1 µM) was 12.9%. For the same compound, the viability, T/C (second compound 3.16 µM, first compound 3.16 µM) was 6.61%, the viability, T/C (second compound 3.16 µM, first compound 10 µM) was 0.36% and the viability, T/C [21] was 10.6%. For the same compound, the viability, T/C [22] was 11.4%, the viability, T/C (second compound 10 µM, first compound 0.316 µM) was 9.32% and the viability, T/C (second compound 10 µM, first compound 1 µM) was 6.87%. The viability, T/C (second compound 10 µM, first compound 3.16 µM) was 4.93% and the viability, T/C (second compound 10 µM, first compound 10 µM) was 0.28%.
With `Cn1ncnc1[C@H]1c2n[nH]c(=O)c3cc(F)cc(c23)N[C@@H]1c1ccc(F)cc1` + CC(C)NCC(C(=O)N1CCN(c2ncnc3c2C(C)CC3O)CC1)c1ccc(Cl)cc1 the pIC50 (second compound 0.1 µM) was less than 7.00, the pIC50 (second compound 0.316 µM) was greater than 9.50 and the pIC50 (second compound 1 µM) was greater than 9.50. The pIC50 (second compound 3.16 µM) was greater than 9.50, the pIC50 (second compound 10 µM) was greater than 9.50 and the viability, T/C (second compound 0.1 µM, first compound 0.000316 µM) was 74.2%. For the same compound, the viability, T/C (second compound 0.1 µM, first compound 0.001 µM) was 78.8%, the viability, T/C (second compound 0.1 µM, first compound 0.00316 µM) was 60.9% and the viability, T/C (second compound 0.1 µM, first compound 0.01 µM) was 69.4%. It also gave a viability, T/C [1] of 65.4%, a viability, T/C [2] of 58.8% and a viability, T/C (second compound 0.316 µM, first compound 0.000316 µM) of 34.5%. It also gave a viability, T/C (second compound 0.316 µM, first compound 0.001 µM) of 39.5%, a viability, T/C (second compound 0.316 µM, first compound 0.00316 µM) of 41.2% and a viability, T/C (second compound 0.316 µM, first compound 0.01 µM) of 38.4%. For the same compound, the viability, T/C [7] was 38.3%, the viability, T/C [8] was 33.2% and the viability, T/C (second compound 1 µM, first compound 0.000316 µM) was 22.9%. It also gave a viability, T/C (second compound 1 µM, first compound 0.001 µM) of 21.5%, a viability, T/C (second compound 1 µM, first compound 0.00316 µM) of 20.5% and a viability, T/C (second compound 1 µM, first compound 0.01 µM) of 20.4%. For the same compound, the viability, T/C [13] was 20.9%, the viability, T/C [14] was 19% and the viability, T/C (second compound 3.16 µM, first compound 0.000316 µM) was 19%. It also gave a viability, T/C (second compound 3.16 µM, first compound 0.001 µM) of 17.1%, a viability, T/C (second compound 3.16 µM, first compound 0.00316 µM) of 15.1% and a viability, T/C (second compound 3.16 µM, first compound 0.01 µM) of 15.4%. For the same compound, the viability, T/C [19] was 12.8%, the viability, T/C [20] was 16.1% and the viability, T/C (second compound 10 µM, first compound 0.000316 µM) was 10.3%. The viability, T/C (second compound 10 µM, first compound 0.001 µM) was 10.1%, the viability, T/C (second compound 10 µM, first compound 0.00316 µM) was 10.3% and the viability, T/C (second compound 10 µM, first compound 0.01 µM) was 9.69%. For the same compound, the viability, T/C [21] was 8.59% and the viability, T/C [22] was 9.45%.
Compound `C=CCn1c(=O)c2cnc(Nc3ccc(N4CCN(C)CC4)cc3)nc2n1-c1cccc(C(C)(C)O)n1` + CCN1CCN(Cc2ccc(Nc3ncc(F)c(-c4cc(F)c5nc(C)n(C(C)C)c5c4)n3)nc2)CC1 has a pIC50 (second compound 0.01 µM) of 7.05, a pIC50 (second compound 0.0316 µM) of 7.25 and a pIC50 (second compound 0.1 µM) greater than 7.50. It also gave a pIC50 (second compound 0.316 µM) of 7.41, a pIC50 (second compound 1 µM) greater than 7.50 and a viability, T/C (second compound 0.01 µM, first compound 0.0316 µM) of 83.9%. It also gave a viability, T/C (second compound 0.01 µM, first compound 0.1 µM) of 46.6%, a viability, T/C (second compound 0.01 µM, first compound 0.316 µM) of 13.1% and a viability, T/C (second compound 0.01 µM, first compound 1 µM) of 7.77%. For the same compound, the viability, T/C (second compound 0.01 µM, first compound 3.16 µM) was 4.03%, the viability, T/C (second compound 0.01 µM, first compound 10 µM) was 6.24% and the viability, T/C (second compound 0.0316 µM, first compound 0.0316 µM) was 63.7%. It also gave a viability, T/C (second compound 0.0316 µM, first compound 0.1 µM) of 36%, a viability, T/C (second compound 0.0316 µM, first compound 0.316 µM) of 12.1% and a viability, T/C (second compound 0.0316 µM, first compound 1 µM) of 8.26%. The viability, T/C (second compound 0.0316 µM, first compound 3.16 µM) was 6.84%, the viability, T/C (second compound 0.0316 µM, first compound 10 µM) was 6.66% and the viability, T/C [1] was 49.2%. The viability, T/C [2] was 36.3%, the viability, T/C [3] was 14.4% and the viability, T/C [4] was 9.93%. It also gave a viability, T/C [5] of 5.86%, a viability, T/C [6] of 8.17% and a viability, T/C [7] of 53.5%. The viability, T/C [8] was 34.8%, the viability, T/C [9] was 17.9% and the viability, T/C [10] was 15%. It also gave a viability, T/C [11] of 10.3%, a viability, T/C [12] of 10.5% and a viability, T/C [13] of 36.4%. It also gave a viability, T/C [14] of 29.3%, a viability, T/C [15] of 19.7% and a viability, T/C [16] of 16.9%. It also gave a viability, T/C [17] of 17.4% and a viability, T/C [18] of 15.6%.
`Cn1cnc2c(F)c(Nc3ccc(Br)cc3Cl)c(C(=O)NOCCO)cc21` + CCN1CCN(Cc2ccc(Nc3ncc(F)c(-c4cc(F)c5nc(C)n(C(C)C)c5c4)n3)nc2)CC1 showed a pIC50 (second compound 0.01 µM) of 5.78, a pIC50 (second compound 0.0316 µM) of 5.93 and a pIC50 (second compound 0.1 µM) of 6.41. It also gave a pIC50 (second compound 0.316 µM) of 6.78, a pIC50 (second compound 1 µM) greater than 8.02 and a viability, T/C (second compound 0.01 µM, first compound 0.00949 µM) of 90.9%. The viability, T/C (second compound 0.01 µM, first compound 0.03 µM) was 95.4%, the viability, T/C (second compound 0.01 µM, first compound 0.0949 µM) was 98% and the viability, T/C (second compound 0.01 µM, first compound 0.3 µM) was 96%. For the same compound, the viability, T/C (second compound 0.01 µM, first compound 0.949 µM) was 65.5%, the viability, T/C (second compound 0.01 µM, first compound 3 µM) was 33.9% and the viability, T/C (second compound 0.0316 µM, first compound 0.00949 µM) was 80.6%. It also gave a viability, T/C (second compound 0.0316 µM, first compound 0.03 µM) of 79.5%, a viability, T/C (second compound 0.0316 µM, first compound 0.0949 µM) of 84.1% and a viability, T/C (second compound 0.0316 µM, first compound 0.3 µM) of 75.1%. It also gave a viability, T/C (second compound 0.0316 µM, first compound 0.949 µM) of 55.5%, a viability, T/C (second compound 0.0316 µM, first compound 3 µM) of 27.1% and a viability, T/C (second compound 0.1 µM, first compound 0.00949 µM) of 59.8%. For the same compound, the viability, T/C (second compound 0.1 µM, first compound 0.03 µM) was 59.1%, the viability, T/C (second compound 0.1 µM, first compound 0.0949 µM) was 66.8% and the viability, T/C (second compound 0.1 µM, first compound 0.3 µM) was 51.2%. The viability, T/C (second compound 0.1 µM, first compound 0.949 µM) was 38.6%, the viability, T/C (second compound 0.1 µM, first compound 3 µM) was 28.2% and the viability, T/C (second compound 0.316 µM, first compound 0.00949 µM) was 61.7%. For the same compound, the viability, T/C (second compound 0.316 µM, first compound 0.03 µM) was 63.7%, the viability, T/C (second compound 0.316 µM, first compound 0.0949 µM) was 49.1% and the viability, T/C (second compound 0.316 µM, first compound 0.3 µM) was 47.4%. The viability, T/C (second compound 0.316 µM, first compound 0.949 µM) was 38.8%, the viability, T/C (second compound 0.316 µM, first compound 3 µM) was 28.4% and the viability, T/C (second compound 1 µM, first compound 0.00949 µM) was 41.8%. For the same compound, the viability, T/C (second compound 1 µM, first compound 0.03 µM) was 50.6%, the viability, T/C (second compound 1 µM, first compound 0.0949 µM) was 50.8% and the viability, T/C (second compound 1 µM, first compound 0.3 µM) was 44.6%. The viability, T/C (second compound 1 µM, first compound 0.949 µM) was 35.9% and the viability, T/C (second compound 1 µM, first compound 3 µM) was 24.2%.
